From US12139520B2 (priority 2020, dated 2024)
Bridge positions count the residues as written; N and C are the ends. Square brackets hold non-standard residues; d marks the D form. Peptide text beside a SMILES is read from it. Hyp = O=C(O)[C@@H]1C[C@@H](O)CN1

Tests used:
hAMY3 receptor = target: T1, hAMY3 receptor (Homo sapiens, UniProt O60896+P30988); experiment: cAMP assay for in vitro receptor activation, hAMY3-R; format: cell-based; conditions: cAMP assay, hAMY3 receptor; read-out: hAMY3R EC50
T1 sequence (P30988 25-474): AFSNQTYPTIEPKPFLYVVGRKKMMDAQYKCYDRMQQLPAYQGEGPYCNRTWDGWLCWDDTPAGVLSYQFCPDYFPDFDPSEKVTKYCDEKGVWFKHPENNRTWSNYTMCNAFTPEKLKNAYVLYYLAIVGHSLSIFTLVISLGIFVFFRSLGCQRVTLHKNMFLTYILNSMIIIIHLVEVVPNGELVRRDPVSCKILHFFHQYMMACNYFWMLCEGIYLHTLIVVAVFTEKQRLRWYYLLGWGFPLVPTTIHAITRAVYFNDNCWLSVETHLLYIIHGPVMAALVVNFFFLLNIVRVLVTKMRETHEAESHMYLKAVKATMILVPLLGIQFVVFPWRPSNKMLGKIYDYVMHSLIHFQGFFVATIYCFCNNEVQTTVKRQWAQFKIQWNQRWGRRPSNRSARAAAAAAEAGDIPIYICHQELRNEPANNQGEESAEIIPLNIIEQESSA
T1 sequence (O60896 24-148 partner): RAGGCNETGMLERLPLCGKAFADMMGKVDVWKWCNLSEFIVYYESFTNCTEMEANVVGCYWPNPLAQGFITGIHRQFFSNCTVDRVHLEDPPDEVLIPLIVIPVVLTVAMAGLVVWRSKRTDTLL
How it was run: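 Accumulated cAMP was detected by time-resolved FRET one hour after reagent addition. Beforehand, hAMY3-R-overexpressing monoclonal cells (2000/well, DPBS, 0.05% casein, 0.5 mM IBMX) received graded doses of compound for 30 min at room temperature; human amylin served as positive control.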

[1] = Physical stability of peptide analogues (Thioflavin T fibrillation); format: physicochemical; conditions: maximum ThT signal normalized between hAMY maximum and buffer background; 40° C., shaking, four days; pH 7 per table title
How it was run: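 1 h in 50 mM NaOAc pH 4 / 50 mM NaPi pH 7; + ThT 4 μM final; 40 °C, 700 rpm linear shake 5 min pre-read; ex 450, em 480 nm q10 min × 4 d; LOESS smoothing; max signal normalised to hAMY max vs buffer blank.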

CC[C@H](C)[C@H](NC(=O)[C@H](CCC(N)=O)NC(=O)[C@H](Cc1c[nH]cn1)NC(=O)[C@H](C)NC(=O)[C@H](CC(C)C)NC(=O)[C@H](CCCNC(=N)N)NC(=O)[C@H](CCC(N)=O)NC(=O)[C@@H](NC(=O)[C@@H](NC(=O)[C@@H]1CSSC[C@H](NC(=O)CN)C(=O)N[C@@H](CCCNC(=N)N)C(=O)N[C@@H](Cc2ccccc2)C(=O)NCC(=O)N[C@@H]([C@@H](C)O)C(=O)N1)[C@@H](C)O)C(C)C)C(=O)N[C@@H](Cc1ccc(O)cc1)C(=O)N[C@@H](CCC(N)=O)C(=O)N[C@@H](Cc1ccccc1)C(=O)N[C@H](C(=O)N[C@@H](CC(=O)O)C(=O)N[C@@H](CCCCN)C(=O)N[C@@H](CC(=O)O)C(=O)N[C@@H](CCCCN)C(=O)N[C@@H](CC(=O)O)C(=O)N[C@@H](CC(N)=O)C(=O)N[C@H](C(=O)N[C@@H](C)C(=O)N1CCC[C@H]1C(=O)N[C@@H](CCCNC(=N)N)C(=O)N[C@H](C(=O)N[C@@H](CCCCN)C(=O)N[C@H](C(=O)N[C@@H](CO)C(=O)N1CCC[C@H]1C(=O)N[C@@H](CC(N)=O)C(=O)NCC(=O)N1C[C@H](O)C[C@H]1C(N)=O)[C@@H](C)CC)[C@@H](C)O)C(C)C)[C@@H](C)O [compound 113] (H-GCRFGTCTVQRLAHQIYQFTDKDKDNVAPRTKISPNG[Hyp]-NH2; disulfide 2-7; N-terminus assumed)
EC50 (hAMY3 receptor): 22 pM | Max ThT signal (%) [1]: 14.700%

CC[C@H](C)[C@H](NC(=O)[C@H](CCC(N)=O)NC(=O)[C@H](Cc1c[nH]cn1)NC(=O)[C@H](C)NC(=O)[C@H](CC(C)C)NC(=O)[C@H](CCCNC(=N)N)NC(=O)[C@H](CCC(N)=O)NC(=O)[C@@H](NC(=O)[C@@H](NC(=O)[C@@H]1CSSC[C@H](NC(=O)CN)C(=O)N[C@@H](CCCNC(=N)N)C(=O)N[C@@H](Cc2ccccc2)C(=O)NCC(=O)N[C@@H]([C@@H](C)O)C(=O)N1)[C@@H](C)O)C(C)C)C(=O)N[C@@H](Cc1ccc(O)cc1)C(=O)N[C@@H](CCC(N)=O)C(=O)N[C@@H](Cc1ccccc1)C(=O)N[C@H](C(=O)N[C@@H](CC(=O)O)C(=O)N[C@@H](CCCCN)C(=O)N[C@@H](CC(=O)O)C(=O)N[C@@H](CCCCN)C(=O)N[C@@H](CC(=O)O)C(=O)N[C@@H](CC(N)=O)C(=O)N[C@H](C(=O)N[C@@H](C)C(=O)N1CCC[C@H]1C(=O)N[C@@H](CCCNC(=N)N)C(=O)N[C@H](C(=O)N[C@@H](CC(N)=O)C(=O)N[C@H](C(=O)N[C@@H](CO)C(=O)N1CCC[C@H]1C(=O)N[C@@H](CCC(N)=O)C(=O)NCC(=O)N[C@@H](Cc1ccc(O)cc1)C(N)=O)C(C)C)[C@@H](C)O)C(C)C)[C@@H](C)O [compound 116] (H-GCRFGTCTVQRLAHQIYQFTDKDKDNVAPRTNVSPQGY-NH2; disulfide 2-7; N-terminus assumed)
EC50 (hAMY3 receptor): 24 pM | Max ThT signal (%) [1]: 11.700%

CC[C@H](C)[C@H](NC(=O)[C@H](CC(N)=O)NC(=O)[C@@H](NC(=O)[C@H](CCCNC(=N)N)NC(=O)[C@@H]1CCCN1C(=O)[C@H](C)NC(=O)[C@@H](NC(=O)[C@H](CC(N)=O)NC(=O)[C@H](CC(=O)O)NC(=O)[C@H](CCCCN)NC(=O)[C@H](CC(=O)O)NC(=O)[C@H](CCCCN)NC(=O)[C@H](CC(=O)O)NC(=O)[C@@H](NC(=O)[C@H](Cc1ccccc1)NC(=O)[C@H](CCC(N)=O)NC(=O)[C@H](Cc1ccc(O)cc1)NC(=O)[C@@H](NC(=O)[C@H](CCC(N)=O)NC(=O)[C@H](Cc1c[nH]cn1)NC(=O)[C@H](C)NC(=O)[C@H](CC(C)C)NC(=O)[C@H](CCCNC(=N)N)NC(=O)[C@H](CCC(N)=O)NC(=O)[C@@H](NC(=O)[C@@H](NC(=O)[C@@H]1CSSC[C@H](NC(=O)CN)C(=O)N[C@@H](CCCNC(=N)N)C(=O)N[C@@H]([C@@H](C)O)C(=O)NCC(=O)N[C@@H]([C@@H](C)O)C(=O)N1)[C@@H](C)O)C(C)C)[C@@H](C)CC)[C@@H](C)O)C(C)C)[C@@H](C)O)C(=O)NCC(=O)N1CCC[C@H]1C(=O)N[C@@H](CCC(N)=O)C(=O)NCC(=O)N1C[C@H](O)C[C@H]1C(N)=O [compound 118] (H-GCRTGTCTVQRLAHQIYQFTDKDKDNVAPRTNIGPQG[Hyp]-NH2; disulfide 2-7; N-terminus assumed)
EC50 (hAMY3 receptor): 24 pM | Max ThT signal (%) [1]: 7.400%

CC[C@H](C)[C@H](NC(=O)[C@H](CCC(N)=O)NC(=O)[C@H](Cc1c[nH]cn1)NC(=O)[C@H](C)NC(=O)[C@H](CC(C)C)NC(=O)[C@H](CCCNC(=N)N)NC(=O)[C@H](CCC(N)=O)NC(=O)[C@@H](NC(=O)[C@@H](NC(=O)[C@@H]1CSSC[C@H](NC(=O)CN)C(=O)N[C@@H](CCCNC(=N)N)C(=O)N[C@@H]([C@@H](C)O)C(=O)NCC(=O)N[C@@H]([C@@H](C)O)C(=O)N1)[C@@H](C)O)C(C)C)C(=O)N[C@@H](Cc1ccc(O)cc1)C(=O)N[C@@H](CCC(N)=O)C(=O)N[C@@H](Cc1ccccc1)C(=O)N[C@H](C(=O)N[C@@H](CC(=O)O)C(=O)N[C@@H](CCCCN)C(=O)N[C@@H](CC(=O)O)C(=O)N[C@@H](CCCCN)C(=O)N[C@@H](CC(=O)O)C(=O)N[C@@H](CC(N)=O)C(=O)N[C@H](C(=O)N[C@@H](C)C(=O)N1CCC[C@H]1C(=O)N[C@@H](CCCNC(=N)N)C(=O)N[C@@H](CO)C(=O)N[C@@H](CC(N)=O)C(=O)N[C@H](C(=O)NCC(=O)N1CCC[C@H]1C(=O)N[C@@H](CCC(N)=O)C(=O)NCC(=O)N1C[C@H](O)C[C@H]1C(N)=O)C(C)C)C(C)C)[C@@H](C)O [compound 121] (H-GCRTGTCTVQRLAHQIYQFTDKDKDNVAPRSNVGPQG[Hyp]-NH2; disulfide 2-7; N-terminus assumed)
EC50 (hAMY3 receptor): 26 pM | Max ThT signal (%) [1]: 1.800%

CC[C@H](C)[C@H](NC(=O)[C@H](CCC(N)=O)NC(=O)[C@H](Cc1c[nH]cn1)NC(=O)[C@H](C)NC(=O)[C@H](CC(C)C)NC(=O)[C@H](CCCNC(=N)N)NC(=O)[C@H](CCC(N)=O)NC(=O)[C@@H](NC(=O)[C@@H](NC(=O)[C@@H]1CSSC[C@H](NC(=O)CN)C(=O)N[C@@H](CCCNC(=N)N)C(=O)N[C@@H](Cc2ccccc2)C(=O)NCC(=O)N[C@@H]([C@@H](C)O)C(=O)N1)[C@@H](C)O)C(C)C)C(=O)N[C@@H](Cc1ccc(O)cc1)C(=O)N[C@@H](CCC(N)=O)C(=O)N[C@@H](Cc1ccccc1)C(=O)N[C@H](C(=O)N[C@@H](CC(=O)O)C(=O)N[C@@H](CCCCN)C(=O)N[C@@H](CC(=O)O)C(=O)N[C@@H](CCCCN)C(=O)N[C@@H](CC(=O)O)C(=O)N[C@@H](CC(N)=O)C(=O)N[C@H](C(=O)N[C@@H](C)C(=O)N1CCC[C@H]1C(=O)N[C@@H](CCCNC(=N)N)C(=O)N[C@H](C(=O)N[C@@H](CC(N)=O)C(=O)N[C@H](C(=O)N[C@@H](CO)C(=O)N1CCC[C@H]1C(=O)N[C@@H](CCC(N)=O)C(=O)NCC(=O)N1C[C@H](O)C[C@H]1C(N)=O)C(C)C)[C@@H](C)O)C(C)C)[C@@H](C)O [compound 125] (H-GCRFGTCTVQRLAHQIYQFTDKDKDNVAPRTNVSPQG[Hyp]-NH2; disulfide 2-7; N-terminus assumed)
EC50 (hAMY3 receptor): 27 pM | Max ThT signal (%) [1]: 7.200%

CC[C@H](C)[C@H](NC(=O)[C@H](CCC(N)=O)NC(=O)[C@H](Cc1c[nH]cn1)NC(=O)[C@H](C)NC(=O)[C@H](CC(C)C)NC(=O)[C@H](CCCNC(=N)N)NC(=O)[C@H](CCC(N)=O)NC(=O)[C@@H](NC(=O)[C@@H](NC(=O)[C@@H]1CSSC[C@H](NC(=O)CN)C(=O)N[C@@H](CCCNC(=N)N)C(=O)N[C@@H]([C@@H](C)O)C(=O)NCC(=O)N[C@@H]([C@@H](C)O)C(=O)N1)[C@@H](C)O)C(C)C)C(=O)N[C@@H](Cc1ccc(O)cc1)C(=O)N[C@@H](CCC(N)=O)C(=O)N[C@@H](Cc1ccccc1)C(=O)N[C@H](C(=O)N[C@@H](CC(=O)O)C(=O)N[C@@H](CCCCN)C(=O)N[C@@H](CC(=O)O)C(=O)N[C@@H](CCCCN)C(=O)N[C@@H](CC(=O)O)C(=O)N[C@@H](CC(N)=O)C(=O)N[C@H](C(=O)N[C@@H](C)C(=O)N1CCC[C@H]1C(=O)N[C@@H](CCCNC(=N)N)C(=O)N[C@@H](CO)C(=O)N[C@@H](CCCCN)C(=O)N[C@H](C(=O)NCC(=O)N1CCC[C@H]1C(=O)N[C@@H](CCC(N)=O)C(=O)NCC(=O)N[C@@H](Cc1ccc(O)cc1)C(N)=O)C(C)C)C(C)C)[C@@H](C)O [compound 129] (H-GCRTGTCTVQRLAHQIYQFTDKDKDNVAPRSKVGPQGY-NH2; disulfide 2-7)
EC50 (hAMY3 receptor): 29 pM | Max ThT signal (%) [1]: 1.400%
